Results taken from US10597388B2, “Pyridazinone herbicides” (FMC CORPORATION, priority 2014, dated 2020).

Legend:
Assay type in all cases: in vivo
soybean (Glycine max) = assay: Test E greenhouse herbicide test, pre- and postemergence
Method in brief: (§1)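 Compounds in a non-phytotoxic solvent mixture with surfactant were applied preemergence to seeds in silt loam soil and postemergence to 2-18 cm plants (1- to 4-leaf stage) in peat-based medium. After 14 to 21 d in a greenhouse, injury was rated visually against untreated controls on a 0 (no effect) to 100 (complete control) scale.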

[1] = test system: johnsongrass (Sorghum halepense); assay: as above; details: Preemergence
Method in brief: as §1

[2] = test system: waterhemp (common waterhemp, Amaranthus rudis); assay: as above
Method in brief: as §1

[3] = test system: dayflower (Virginia (VA) dayflower, Commelina virginica); assay: as above
Method in brief: as §1

[4] = test system: nutsedge, yellow (yellow nutsedge, Cyperus esculentus); assay: as above; details: Preemergence
Method in brief: as §1

[5] = test system: beggarticks (hairy beggarticks, Bidens pilosa); assay: as above
Method in brief: as §1

[6] = test system: pigweed, palmer (palmer pigweed, Amaranthus palmeri); assay: as above
Method in brief: as §1

[7] = test system: field bindweed (Convolvulus arvensis); assay: as above
Method in brief: as §1

[8] = test system: momingglory (Ipomoea coccinea); assay: as above; details: Preemergence
Method in brief: as §1

[9] = test system: ragweed (common ragweed, Ambrosia elatior); assay: as above; details: Preemergence
Method in brief: as §1

[10] = test system: waterhemp_RES2 (ALS & HPPD resistant common waterhemp, Amaranthus rudis); assay: Test E greenhouse herbicide test, postemergence
Method in brief: (§2)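 Visual injury scored 0 (no effect) to 100 (complete control) versus untreated plants, 14 to 21 d after treatment in the greenhouse. Plants were treated postemergence at 1- to 4-leaf stage, 2–18 cm height, in peat-moss/vermiculite medium.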

[11] = test system: waterhemp_RES1 (ALS & Triazine resistant common waterhemp, Amaranthus rudis); assay: Test E greenhouse herbicide test, postemergence
Method in brief: as §2

[12] = 62 g ai/ha, Postemergence, scale 0 to 100 (0 no effect, 100 complete control)
[13] = 62 g ai/ha, Preemergence, scale 0 to 100 (0 no effect, 100 complete control)
[14] = 125 g ai/ha, Postemergence, scale 0 to 100 (0 no effect, 100 complete control)
[15] = 125 g ai/ha, Preemergence, scale 0 to 100 (0 no effect, 100 complete control)
[16] = 250 g ai/ha, Postemergence, scale 0 to 100 (0 no effect, 100 complete control)
[17] = Postemergence, 16 g ai/ha, visual, scale 0 no effect to 100 complete control
[18] = Postemergence, 31 g ai/ha, visual, scale 0 no effect to 100 complete control
[19] = Preemergence, 16 g ai/ha, scale 0 to 100, 0 no effect, 100 complete control
[20] = Preemergence, 31 g ai/ha, scale 0 to 100, 0 no effect, 100 complete control
[21] = Preemergence, 250 g ai/ha, visual, scale 0 no effect to 100 complete control
[22] = 62 g ai/ha, scale 0 to 100 (0 no effect, 100 complete control)
[23] = 16 g ai/ha, scale 0 to 100, 0 no effect, 100 complete control
[24] = 31 g ai/ha, scale 0 to 100, 0 no effect, 100 complete control
[25] = 250 g ai/ha, visual, scale 0 no effect to 100 complete control
[26] = Preemergence, 125 g ai/ha, visual, scale 0 no effect to 100 complete control
[27] = 125 g ai/ha, scale 0 to 100 (0 no effect, 100 complete control)
[28] = 16 g ai/ha, visual, scale 0 no effect to 100 complete control
[29] = 31 g ai/ha, visual, scale 0 no effect to 100 complete control
[30] = 250 g ai/ha, scale 0 to 100 (0 no effect, 100 complete control)

Cc1ccc2sc(C)c(-c3c(O)c(C)nn(C)c3=O)c2c1 [Compound 1, 4-(2,5-dimethylbenzo[b]thien-3-yl)-5-hydroxy-2,6-dimethyl-3(2H)-pyridazinone]
Plant response rating, Soybean (soybean (Glycine max); [12]): 10
Plant response rating, Soybean (soybean (Glycine max); [13]): 15
Plant response rating, Soybean (soybean (Glycine max); [14]): 15
Plant response rating, Soybean (soybean (Glycine max); [15]): 40
Plant response rating, Soybean (soybean (Glycine max); [16]): 20
Plant response rating, Soybean (soybean (Glycine max); [17]): 0
Plant response rating, Soybean (soybean (Glycine max); [18]): 0
Plant response rating, Soybean (soybean (Glycine max); [19]): 0
Plant response rating, Soybean (soybean (Glycine max); [20]): 0
Plant response rating, Soybean (soybean (Glycine max); [21]): 75
Plant response rating, Johnsongrass [1, 22]: 0
Plant response rating, Johnsongrass [1, 23]: 0
Plant response rating, Johnsongrass [1, 24]: 0
Plant response rating, Johnsongrass ([1]; 125 g ai/ha, visual, scale 0 no effect to 100 complete control): 30
Plant response rating, Johnsongrass [1, 25]: 40
Plant response rating, Waterhemp [2, 12]: 95
Plant response rating, Waterhemp [2, 13]: 100
Plant response rating, Waterhemp [2, 14]: 98
Plant response rating, Waterhemp [2, 15]: 100
Plant response rating, Waterhemp [2, 16]: 100
Plant response rating, Waterhemp [2, 17]: 70
Plant response rating, Waterhemp [2, 18]: 85
Plant response rating, Waterhemp [2, 19]: 35
Plant response rating, Waterhemp [2, 20]: 90
Plant response rating, Waterhemp [2, 21]: 100
Plant response rating, Dayflower, VA [3, 12]: 0
Plant response rating, Dayflower, VA [3, 13]: 20
Plant response rating, Dayflower, VA [3, 14]: 30
Plant response rating, Dayflower, VA [3, 16]: 50
Plant response rating, Dayflower, VA [3, 17]: 0
Plant response rating, Dayflower, VA [3, 18]: 0
Plant response rating, Dayflower, VA [3, 19]: 0
Plant response rating, Dayflower, VA [3, 20]: 0
Plant response rating, Dayflower, VA [3, 26]: 15
Plant response rating, Dayflower, VA [3, 21]: 25
Plant response rating, Nutsedge, Yellow [4, 22]: 15
Plant response rating, Nutsedge, Yellow [4, 27]: 50
Plant response rating, Nutsedge, Yellow [4, 23]: 0
Plant response rating, Nutsedge, Yellow [4, 24]: 10
Plant response rating, Nutsedge, Yellow [4, 25]: 70
Plant response rating, Beggarticks [5, 12]: 98
Plant response rating, Beggarticks [5, 13]: 100
Plant response rating, Beggarticks [5, 14]: 100
Plant response rating, Beggarticks [5, 16]: 100
Plant response rating, Beggarticks [5, 17]: 70
Plant response rating, Beggarticks [5, 18]: 85
Plant response rating, Beggarticks [5, 19]: 100
Plant response rating, Beggarticks [5, 20]: 100
Plant response rating, Beggarticks [5, 26]: 100
Plant response rating, Beggarticks [5, 21]: 100
Plant response rating, Pigweed, Palmer [6, 12]: 90
Plant response rating, Pigweed, Palmer [6, 13]: 100
Plant response rating, Pigweed, Palmer [6, 14]: 75
Plant response rating, Pigweed, Palmer [6, 15]: 100
Plant response rating, Pigweed, Palmer [6, 16]: 98
Plant response rating, Pigweed, Palmer [6, 17]: 70
Plant response rating, Pigweed, Palmer [6, 18]: 20
Plant response rating, Pigweed, Palmer [6, 19]: 20
Plant response rating, Pigweed, Palmer [6, 20]: 90
Plant response rating, Pigweed, Palmer [6, 21]: 100
Plant response rating, Field Bindweed [7, 12]: 70
Plant response rating, Field Bindweed [7, 13]: 80
Plant response rating, Field Bindweed [7, 14]: 85
Plant response rating, Field Bindweed [7, 16]: 95
Plant response rating, Field Bindweed [7, 17]: 65
Plant response rating, Field Bindweed [7, 18]: 65
Plant response rating, Field Bindweed [7, 19]: 5
Plant response rating, Field Bindweed [7, 20]: 20
Plant response rating, Field Bindweed [7, 26]: 95
Plant response rating, Field Bindweed [7, 21]: 100
Plant response rating, Morningglory [8, 22]: 98
Plant response rating, Morningglory [8, 27]: 90
Plant response rating, Morningglory [8, 23]: 20
Plant response rating, Morningglory [8, 24]: 60
Plant response rating, Morningglory [8, 25]: 100
Plant response rating, Ragweed [9, 22]: 75
Plant response rating, Ragweed [9, 27]: 100
Plant response rating, Ragweed [9, 23]: 35
Plant response rating, Ragweed [9, 24]: 70
Plant response rating, Ragweed [9, 25]: 100
Plant response rating, Waterhemp_RES2 [10, 28]: 0
Plant response rating, Waterhemp_RES2 [10, 29]: 75
Plant response rating, Waterhemp_RES2 [10, 22]: 70
Plant response rating, Waterhemp_RES2 [10, 27]: 70
Plant response rating, Waterhemp_RES2 [10, 30]: 75
Plant response rating, Waterhemp_RES1 [11, 28]: 75
Plant response rating, Waterhemp_RES1 [11, 29]: 80
Plant response rating, Waterhemp_RES1 [11, 22]: 90
Plant response rating, Waterhemp_RES1 [11, 27]: 98
Plant response rating, Waterhemp_RES1 [11, 30]: 100
